Data as given in article PMC9851200, “Multiparameter phenotypic screening for endogenous TFEB and TFE3 translocation identifies novel chemical series modulating lysosome function” (Autophagy, 2022).

Experiments:
Format in all cases: binding
[1] = biological target: kinases (KINOMEscan panel) (Homo sapiens, UniProt Q9P1W9); conditions: PIM2; NEW KINOMEscan
[2] = biological target: T1, kinases (KINOMEscan panel) (Homo sapiens, UniProt P41743); conditions: PRKCI; NEW KINOMEscan
T1 sequence (P41743 1-596): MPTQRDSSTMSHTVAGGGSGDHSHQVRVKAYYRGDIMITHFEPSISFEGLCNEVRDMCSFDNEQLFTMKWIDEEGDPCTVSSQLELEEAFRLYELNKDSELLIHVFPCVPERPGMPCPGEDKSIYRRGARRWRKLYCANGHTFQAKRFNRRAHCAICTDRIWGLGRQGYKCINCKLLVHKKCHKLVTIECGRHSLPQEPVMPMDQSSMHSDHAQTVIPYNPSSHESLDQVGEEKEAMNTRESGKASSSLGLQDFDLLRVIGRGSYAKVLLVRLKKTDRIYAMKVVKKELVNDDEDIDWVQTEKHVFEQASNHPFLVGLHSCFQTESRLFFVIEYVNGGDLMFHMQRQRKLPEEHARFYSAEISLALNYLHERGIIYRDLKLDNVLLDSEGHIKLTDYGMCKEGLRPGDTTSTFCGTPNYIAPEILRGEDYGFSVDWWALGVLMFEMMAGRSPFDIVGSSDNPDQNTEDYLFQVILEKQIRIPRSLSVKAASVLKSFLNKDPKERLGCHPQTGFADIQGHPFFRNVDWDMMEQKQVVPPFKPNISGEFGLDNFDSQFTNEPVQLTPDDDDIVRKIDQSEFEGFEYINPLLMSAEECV

[3] = biological target: kinases (KINOMEscan panel) (Homo sapiens, UniProt Q96NX5); conditions: CAMK1G; NEW KINOMEscan
[4] = biological target: kinases (KINOMEscan panel) (Homo sapiens, UniProt P42685); conditions: kinase FRK; NEW KINOMEscan
Sequence of kinases (KINOMEscan panel) (Homo sapiens, UniProt P42685) (P42685 whole entry): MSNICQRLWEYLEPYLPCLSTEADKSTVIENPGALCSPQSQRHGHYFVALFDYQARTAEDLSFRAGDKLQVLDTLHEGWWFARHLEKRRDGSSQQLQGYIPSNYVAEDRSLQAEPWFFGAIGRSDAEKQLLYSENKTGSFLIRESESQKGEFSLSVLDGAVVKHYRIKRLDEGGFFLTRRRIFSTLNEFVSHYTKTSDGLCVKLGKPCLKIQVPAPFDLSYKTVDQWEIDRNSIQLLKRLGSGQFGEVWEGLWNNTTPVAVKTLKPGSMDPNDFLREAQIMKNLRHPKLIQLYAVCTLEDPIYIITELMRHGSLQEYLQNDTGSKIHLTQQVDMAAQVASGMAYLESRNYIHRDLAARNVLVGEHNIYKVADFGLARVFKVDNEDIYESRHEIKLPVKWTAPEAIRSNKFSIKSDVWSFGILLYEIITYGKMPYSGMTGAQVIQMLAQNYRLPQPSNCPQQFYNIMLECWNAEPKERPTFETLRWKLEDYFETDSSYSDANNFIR

[5] = biological target: kinases (KINOMEscan panel) (Homo sapiens, UniProt P22694); conditions: PRKACB; NEW KINOMEscan
[6] = biological target: kinases (KINOMEscan panel) (Homo sapiens, UniProt Q06187); conditions: kinase BTK; NEW KINOMEscan
Sequence of kinases (KINOMEscan panel) (Homo sapiens, UniProt Q06187) (Q06187 whole entry): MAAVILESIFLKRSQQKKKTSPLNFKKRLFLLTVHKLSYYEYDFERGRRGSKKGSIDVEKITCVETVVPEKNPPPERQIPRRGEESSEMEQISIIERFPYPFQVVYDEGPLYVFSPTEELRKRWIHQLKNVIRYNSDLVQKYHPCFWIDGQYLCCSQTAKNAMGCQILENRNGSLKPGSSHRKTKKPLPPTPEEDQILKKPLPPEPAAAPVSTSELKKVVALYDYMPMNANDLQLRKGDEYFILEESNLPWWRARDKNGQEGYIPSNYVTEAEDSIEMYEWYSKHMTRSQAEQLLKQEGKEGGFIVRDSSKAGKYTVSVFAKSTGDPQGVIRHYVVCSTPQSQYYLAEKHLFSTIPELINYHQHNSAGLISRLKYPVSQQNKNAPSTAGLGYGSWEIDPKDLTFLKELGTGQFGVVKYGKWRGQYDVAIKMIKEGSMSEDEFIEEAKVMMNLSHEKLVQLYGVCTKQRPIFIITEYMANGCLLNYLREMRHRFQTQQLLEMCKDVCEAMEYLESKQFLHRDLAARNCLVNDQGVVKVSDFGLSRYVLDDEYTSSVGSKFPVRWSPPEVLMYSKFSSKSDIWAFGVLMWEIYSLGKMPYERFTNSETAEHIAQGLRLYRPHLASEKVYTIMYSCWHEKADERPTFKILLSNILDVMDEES

[7] = biological target: kinases (KINOMEscan panel) (Homo sapiens, UniProt Q14680); conditions: kinase MELK; NEW KINOMEscan
[8] = biological target: kinases (KINOMEscan panel) (Homo sapiens, UniProt P00519, F317I); conditions: NEW KINOMEscan; for KINOMEscan ABL1(F317I)-phosphorylated: kinase ABL1(F317I)-phosphorylated
Sequence of kinases (KINOMEscan panel) (Homo sapiens, UniProt P00519, F317I) (P00519 whole entry F317I): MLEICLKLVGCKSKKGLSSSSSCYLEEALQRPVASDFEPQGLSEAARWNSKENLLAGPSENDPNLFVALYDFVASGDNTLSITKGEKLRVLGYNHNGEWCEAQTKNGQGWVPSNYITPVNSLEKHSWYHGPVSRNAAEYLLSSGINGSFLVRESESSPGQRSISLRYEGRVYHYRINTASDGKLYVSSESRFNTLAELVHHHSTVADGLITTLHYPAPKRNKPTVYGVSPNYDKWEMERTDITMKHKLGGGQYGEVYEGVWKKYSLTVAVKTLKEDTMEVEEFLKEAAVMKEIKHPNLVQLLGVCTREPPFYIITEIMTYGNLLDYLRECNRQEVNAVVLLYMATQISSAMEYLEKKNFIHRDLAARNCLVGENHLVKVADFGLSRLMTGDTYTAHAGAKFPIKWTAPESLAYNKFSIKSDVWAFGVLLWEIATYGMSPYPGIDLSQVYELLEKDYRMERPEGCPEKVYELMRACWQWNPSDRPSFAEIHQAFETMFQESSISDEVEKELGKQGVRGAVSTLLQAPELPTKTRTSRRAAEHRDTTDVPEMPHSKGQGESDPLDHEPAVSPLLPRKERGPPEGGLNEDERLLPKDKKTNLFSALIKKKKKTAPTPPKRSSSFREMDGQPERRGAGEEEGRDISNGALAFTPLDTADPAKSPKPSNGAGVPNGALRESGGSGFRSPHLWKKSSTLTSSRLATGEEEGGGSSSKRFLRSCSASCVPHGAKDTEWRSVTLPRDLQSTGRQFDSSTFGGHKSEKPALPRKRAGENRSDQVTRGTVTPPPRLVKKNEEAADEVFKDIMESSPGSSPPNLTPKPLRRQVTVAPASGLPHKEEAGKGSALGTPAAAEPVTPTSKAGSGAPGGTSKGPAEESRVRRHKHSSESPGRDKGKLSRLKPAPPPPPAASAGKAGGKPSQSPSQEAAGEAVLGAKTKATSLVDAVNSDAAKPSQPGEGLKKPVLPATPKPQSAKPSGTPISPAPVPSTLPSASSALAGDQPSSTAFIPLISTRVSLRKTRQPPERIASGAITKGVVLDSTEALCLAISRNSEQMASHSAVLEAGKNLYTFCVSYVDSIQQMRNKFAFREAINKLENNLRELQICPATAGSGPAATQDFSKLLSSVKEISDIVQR

[9] = biological target: kinases (KINOMEscan panel) (Homo sapiens, UniProt P16234); conditions: PDGFRA; NEW KINOMEscan
Sequence of kinases (KINOMEscan panel) (Homo sapiens, UniProt P16234) (P16234 24-1089): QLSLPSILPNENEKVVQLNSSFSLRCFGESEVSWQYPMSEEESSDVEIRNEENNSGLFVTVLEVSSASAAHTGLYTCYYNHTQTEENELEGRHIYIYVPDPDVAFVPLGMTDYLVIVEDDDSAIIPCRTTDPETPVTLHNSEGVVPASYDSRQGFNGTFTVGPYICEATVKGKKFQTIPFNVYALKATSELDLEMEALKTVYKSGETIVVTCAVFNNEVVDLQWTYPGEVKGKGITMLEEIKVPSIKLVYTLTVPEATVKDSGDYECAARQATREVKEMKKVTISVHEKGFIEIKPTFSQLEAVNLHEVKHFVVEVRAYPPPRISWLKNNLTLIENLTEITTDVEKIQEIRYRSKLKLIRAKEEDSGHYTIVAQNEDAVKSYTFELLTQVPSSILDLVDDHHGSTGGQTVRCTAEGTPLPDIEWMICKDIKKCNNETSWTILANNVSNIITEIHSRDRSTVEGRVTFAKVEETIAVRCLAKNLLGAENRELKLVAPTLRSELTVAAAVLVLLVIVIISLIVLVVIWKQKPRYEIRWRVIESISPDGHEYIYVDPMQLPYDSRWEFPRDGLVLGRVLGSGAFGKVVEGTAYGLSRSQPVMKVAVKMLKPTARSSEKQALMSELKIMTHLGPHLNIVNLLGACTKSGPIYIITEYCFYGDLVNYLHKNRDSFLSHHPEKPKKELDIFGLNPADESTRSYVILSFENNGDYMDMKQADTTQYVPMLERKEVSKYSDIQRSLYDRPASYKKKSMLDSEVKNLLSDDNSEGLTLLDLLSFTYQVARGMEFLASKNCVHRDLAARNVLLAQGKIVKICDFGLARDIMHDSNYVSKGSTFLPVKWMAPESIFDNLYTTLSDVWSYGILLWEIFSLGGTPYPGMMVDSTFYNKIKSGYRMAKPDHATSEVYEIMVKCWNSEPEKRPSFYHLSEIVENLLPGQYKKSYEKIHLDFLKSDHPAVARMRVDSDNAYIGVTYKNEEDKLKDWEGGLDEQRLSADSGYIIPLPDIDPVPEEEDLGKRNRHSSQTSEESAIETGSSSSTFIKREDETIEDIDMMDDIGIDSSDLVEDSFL

[10] = biological target: kinases (KINOMEscan panel) (Homo sapiens, UniProt P42336, H1047L); conditions: NEW KINOMEscan
Sequence of kinases (KINOMEscan panel) (Homo sapiens, UniProt P42336, H1047L) (P42336 whole entry H1047L): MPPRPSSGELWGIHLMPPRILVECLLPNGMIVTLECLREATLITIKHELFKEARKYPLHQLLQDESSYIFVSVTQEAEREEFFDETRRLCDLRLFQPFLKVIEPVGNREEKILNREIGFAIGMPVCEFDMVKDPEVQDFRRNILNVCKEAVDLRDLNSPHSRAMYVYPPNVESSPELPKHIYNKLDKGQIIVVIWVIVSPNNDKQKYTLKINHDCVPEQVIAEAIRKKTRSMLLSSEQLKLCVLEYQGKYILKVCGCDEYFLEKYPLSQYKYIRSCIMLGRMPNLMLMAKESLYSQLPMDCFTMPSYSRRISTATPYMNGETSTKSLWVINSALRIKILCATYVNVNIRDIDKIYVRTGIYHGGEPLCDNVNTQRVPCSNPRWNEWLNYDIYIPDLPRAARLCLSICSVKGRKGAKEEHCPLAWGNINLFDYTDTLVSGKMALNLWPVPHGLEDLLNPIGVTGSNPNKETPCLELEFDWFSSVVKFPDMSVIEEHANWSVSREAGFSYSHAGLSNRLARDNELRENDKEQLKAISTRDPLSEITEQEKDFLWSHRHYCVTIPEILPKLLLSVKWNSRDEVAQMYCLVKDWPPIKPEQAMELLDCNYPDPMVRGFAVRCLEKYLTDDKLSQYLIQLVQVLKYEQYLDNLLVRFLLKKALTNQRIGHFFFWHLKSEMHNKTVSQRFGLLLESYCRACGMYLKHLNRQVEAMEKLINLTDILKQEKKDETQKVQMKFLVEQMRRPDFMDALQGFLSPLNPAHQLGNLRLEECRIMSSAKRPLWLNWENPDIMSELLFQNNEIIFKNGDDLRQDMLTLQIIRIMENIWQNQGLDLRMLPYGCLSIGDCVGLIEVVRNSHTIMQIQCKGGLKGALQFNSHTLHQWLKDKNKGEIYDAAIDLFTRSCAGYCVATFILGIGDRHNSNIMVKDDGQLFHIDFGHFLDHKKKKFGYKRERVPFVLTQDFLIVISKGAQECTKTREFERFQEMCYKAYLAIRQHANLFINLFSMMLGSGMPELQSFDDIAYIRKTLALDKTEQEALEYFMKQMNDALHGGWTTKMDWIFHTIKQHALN

[11] = biological target: T2, kinases (KINOMEscan panel) (Homo sapiens, UniProt P20794); conditions: NEW KINOMEscan
T2 sequence (P20794 1-623): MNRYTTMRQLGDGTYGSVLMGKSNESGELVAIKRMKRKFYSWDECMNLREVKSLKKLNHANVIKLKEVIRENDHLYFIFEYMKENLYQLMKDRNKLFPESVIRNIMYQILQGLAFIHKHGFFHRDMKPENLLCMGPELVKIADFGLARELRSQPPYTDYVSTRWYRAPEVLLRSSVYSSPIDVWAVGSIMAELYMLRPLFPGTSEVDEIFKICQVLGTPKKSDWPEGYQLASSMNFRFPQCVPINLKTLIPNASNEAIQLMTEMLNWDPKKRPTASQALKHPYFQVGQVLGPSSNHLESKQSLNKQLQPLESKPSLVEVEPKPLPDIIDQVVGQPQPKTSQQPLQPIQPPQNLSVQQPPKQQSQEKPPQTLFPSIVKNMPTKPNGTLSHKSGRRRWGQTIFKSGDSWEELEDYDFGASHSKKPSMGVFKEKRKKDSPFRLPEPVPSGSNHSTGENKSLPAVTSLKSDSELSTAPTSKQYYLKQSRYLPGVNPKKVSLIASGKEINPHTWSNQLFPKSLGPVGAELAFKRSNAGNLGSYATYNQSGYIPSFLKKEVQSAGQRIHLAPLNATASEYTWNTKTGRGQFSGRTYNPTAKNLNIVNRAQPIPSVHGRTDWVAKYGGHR

[12] = biological target: kinases (KINOMEscan panel) (Homo sapiens, UniProt Q99755); conditions: NEW KINOMEscan
[13] = biological target: kinases (KINOMEscan panel) (Homo sapiens, UniProt O96013); conditions: PAK4; NEW KINOMEscan
Sequence of kinases (KINOMEscan panel) (Homo sapiens, UniProt O96013) (O96013 whole entry): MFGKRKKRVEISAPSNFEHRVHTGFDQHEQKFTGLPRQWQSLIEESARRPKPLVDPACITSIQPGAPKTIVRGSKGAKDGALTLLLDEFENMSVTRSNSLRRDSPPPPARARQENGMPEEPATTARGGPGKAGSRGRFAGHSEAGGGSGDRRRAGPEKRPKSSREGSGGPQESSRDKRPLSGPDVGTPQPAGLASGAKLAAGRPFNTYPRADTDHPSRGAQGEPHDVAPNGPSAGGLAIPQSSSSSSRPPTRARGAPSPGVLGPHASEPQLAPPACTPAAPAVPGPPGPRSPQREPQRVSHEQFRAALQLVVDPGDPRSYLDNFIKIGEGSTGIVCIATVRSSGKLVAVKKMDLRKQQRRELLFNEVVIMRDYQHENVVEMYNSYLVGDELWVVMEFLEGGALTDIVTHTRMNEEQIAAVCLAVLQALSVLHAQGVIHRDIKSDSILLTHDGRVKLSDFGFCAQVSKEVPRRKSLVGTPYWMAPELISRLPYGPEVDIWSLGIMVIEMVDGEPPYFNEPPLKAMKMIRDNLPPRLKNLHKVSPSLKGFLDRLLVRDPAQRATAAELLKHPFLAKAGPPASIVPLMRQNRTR

[14] = biological target: kinases (KINOMEscan panel) (Homo sapiens, UniProt P00533, DEL746-750); conditions: NEW KINOMEscan
[15] = biological target: kinases (KINOMEscan panel) (Homo sapiens, UniProt Q15375); conditions: EPHA7; NEW KINOMEscan
[16] = biological target: kinases (KINOMEscan panel) (Homo sapiens, UniProt Q96GD4); conditions: kinase AURKB; NEW KINOMEscan

Row | Structure (SMILES) | KINOMEscan PIM2 [1] | KINOMEscan PRKCI [2] | KINOMEscan CAMK1G [3] | KINOMEscan FRK [4] | KINOMEscan PRKACB [5] | KINOMEscan BTK [6] | KINOMEscan MELK [7] | KINOMEscan ABL1(F317I)-nonphosphorylated [8] | KINOMEscan ABL1(F317I)-phosphorylated [8] | KINOMEscan PDGFRA [9] | KINOMEscan PIK3CA(H1047L) [10] | KINOMEscan MAK or ALPK3 [11] | KINOMEscan PIP5K1A [12] | KINOMEscan PAK4 [13] | KINOMEscan EGFR(E746-A750del) [14] | KINOMEscan EPHA7 [15] | KINOMEscan AURKB [16]
1 | Cc1cccc(-c2nc(Nc3ccc4nn(C)cc4c3)c3ccccc3n2)n1 [NK167] | 2 | 0 | 0 | 0 | 1 | 0 | 0 | 0 | 0 | 0 | 4 | 0 | 49 | 0 | 15 | 0 | 0
2 | Cc1cccc(-c2nc(N(C)c3ccc4ncsc4c3)c3ccccc3n2)n1 [NK-161] | 18 | 0 | 0 | 0 | 6 | 10 | 2 | 9 | 0 | 0 | 23 | 5 | 52 | 0 | 21 | 0 | 0
